PubChem BioAssay AID248 (DTP/NCI, 2004)
Several values for one entry are separate records, joined by “and”; a condition that tells them apart may be missing. Equal entries are not always repeated. Toxic doses and inconclusive results are not listed. Cut-off read from the data, not from the text of the source: active = T/C of 150% or more; inactive = T/C below 125%.

System: L1210 leukemia ip in BDF1 mice, survival T/C
Test: NCI In Vivo Anticancer Drug Screen. Data for tumor model L1210 Leukemia (intraperitoneal) in B6D2F1 (BDF1) mice
Details: endpoint: mean survival time, higher = longer survival
In short: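 Transplantable tumor model; survival measured in treated vs vehicle control mice. Value = treated/control.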

[1] = dose: 100.0 mg/kg/injection, schedule: Q04DX003 (ip), vehicle: saline
[2] = dose: 200.0 mg/kg/injection, schedule: Q04DX003 (ip), vehicle: saline
[3] = dose: 400.0 mg/kg/injection, schedule: Q04DX003 (ip), vehicle: saline
[4] = dose: 100.0 mg/kg/injection, schedule: Q01DX001 (ip), vehicle: saline
[5] = dose: 200.0 mg/kg/injection, schedule: Q01DX001 (ip), vehicle: saline
[6] = dose: 100.0 mg/kg/injection, schedule: Q04DX003 (ip), vehicle: saline with Tween-80
[7] = dose: 200.0 mg/kg/injection, schedule: Q04DX003 (ip), vehicle: saline with Tween-80
[8] = dose: 400.0 mg/kg/injection, schedule: Q04DX003 (ip), vehicle: saline with Tween-80
[9] = dose: 100.0 mg/kg/injection, schedule: Q04DX002 (ip), vehicle: Klucel (hydroxypropylcellulose) (HPC)
[10] = dose: 200.0 mg/kg/injection, schedule: Q04DX002 (ip), vehicle: Klucel (hydroxypropylcellulose) (HPC)
[11] = dose: 400.0 mg/kg/injection, schedule: Q04DX002 (ip), vehicle: Klucel (hydroxypropylcellulose) (HPC)

Measured: T/C

FC(F)(F)c1ccc(N2CCCCC2)cc1
inactive: dose: 75.0 mg/kg/injection, schedule: Q04DX002 (ip), vehicle: saline 103 % of control | dose: 150.0 mg/kg/injection, schedule: Q04DX002 (ip), vehicle: saline 95 % of control | dose: 300.0 mg/kg/injection, schedule: Q04DX002 (ip), vehicle: saline 95 % of control

S=C(NCc1ccccc1)[S][Sn]([c]1ccccc1)([c]1ccccc1)[c]1ccccc1
inactive: dose: 5.0 mg/kg/injection, schedule: Q01DX001 (ip), vehicle: steriod suspending solution 101 % of control | dose: 10.0 mg/kg/injection, schedule: Q01DX001 (ip), vehicle: steriod suspending solution 103 % of control | dose: 20.0 mg/kg/injection, schedule: Q01DX001 (ip), vehicle: steriod suspending solution 93 % of control | dose: 40.0 mg/kg/injection, schedule: Q01DX001 (ip), vehicle: steriod suspending solution 113 % of control | dose: 80.0 mg/kg/injection, schedule: Q01DX001 (ip), vehicle: steriod suspending solution 104 % of control

Cn1cc(C(N)=O)ccc1=N
inactive: [1] 113 % of control | [2] 98 % of control | [3] 106 % of control

O=C1CCC(N2C(=O)C3C4C=CC(C4)C3C2=O)C(=O)N1 (configuration not stated)
inactive: [1] 101 % of control | [2] 101 % of control | [3] 97 % of control

CC1CC(=O)CC(C)(C)N1 (configuration not stated)
inactive: [4] 105 % of control | [5] 98 % of control | dose: 400.0 mg/kg/injection, schedule: Q01DX001 (ip), vehicle: saline 94 % of control

O=C(OC1COC(OCc2ccccc2)C(OC(=O)c2ccccc2)C1OC(=O)c1ccccc1)c1ccccc1 (configuration not stated)
inactive: dose: 25.0 mg/kg/injection, schedule: Q04DX003 (ip), vehicle: saline with Tween-80 94 % of control | [6] 93 % of control and 87 % of control

O=S(Sc1ccccc1)c1ccccc1 (configuration not stated)
inactive: dose: 0.94 mg/kg/injection, schedule: Q01DX Z (ip), vehicle: saline 104 % of control | dose: 3.75 mg/kg/injection, schedule: Q01DX Z (ip), vehicle: saline 96 % of control

N#CCCN(NC(=O)OCc1ccccc1)C(=O)OCc1ccccc1
inactive: dose: 100.0 mg/kg/injection, schedule: Q01DX001 (ip), vehicle: carboxymethylcellulose (CMC) 95 % of control | dose: 200.0 mg/kg/injection, schedule: Q01DX001 (ip), vehicle: carboxymethylcellulose (CMC) 89 % of control | dose: 400.0 mg/kg/injection, schedule: Q01DX001 (ip), vehicle: carboxymethylcellulose (CMC) 95 % of control

CCOC(=O)NC(S(=O)(=O)O)S(=O)(=O)O.[Tl]
inactive: dose: 25.0 mg/kg/injection, schedule: Q01DX001 (ip), vehicle: saline with Tween-80 102 % of control

O=CNc1ccccc1
inactive: [6] 96 % of control | [7] 98 % of control | [8] 98 % of control

NC(=O)OCCOCCOC(N)=O
inactive: [6] 98 % of control | [7] 98 % of control | [8] 101 % of control

Cc1ccc(N)cn1
inactive: dose: 25.0 mg/kg/injection, schedule: Q01DX009 (ip), vehicle: Klucel (hydroxypropylcellulose) (HPC) 97 % of control | dose: 25.0 mg/kg/injection, schedule: Q04DX003 (ip), vehicle: Klucel (hydroxypropylcellulose) (HPC) 102 % of control | dose: 50.0 mg/kg/injection, schedule: Q01DX009 (ip), vehicle: Klucel (hydroxypropylcellulose) (HPC) 100 % of control | dose: 50.0 mg/kg/injection, schedule: Q04DX003 (ip), vehicle: Klucel (hydroxypropylcellulose) (HPC) 101 % of control | dose: 100.0 mg/kg/injection, schedule: Q01DX009 (ip), vehicle: Klucel (hydroxypropylcellulose) (HPC) 90 % of control | dose: 100.0 mg/kg/injection, schedule: Q04DX003 (ip), vehicle: Klucel (hydroxypropylcellulose) (HPC) 98 % of control

COc1ccc2nc3cc(Cl)ccc3c(Nc3ccc(O)cc3)c2c1
inactive: dose: 100.0 mg/kg/injection, schedule: Q01DX009 (ip), vehicle: saline with Tween-80 91 % of control | dose: 200.0 mg/kg/injection, schedule: Q01DX009 (ip), vehicle: saline with Tween-80 86 % of control

Clc1ccc(/C=N/N=C/c2ccc(Cl)cc2Cl)c(Cl)c1
inactive: [9] 98 % of control | [10] 98 % of control | [11] 102 % of control

O=[N+]([O-])c1ccc(Oc2ccc(Br)cc2)c([N+](=O)[O-])c1
inactive: [9] 103 % of control | [10] 93 % of control | [11] 97 % of control

Cc1nccc2ccsc12
inactive: dose: 75.0 mg/kg/injection, schedule: Q01DX001 (ip), vehicle: other 105 % of control | dose: 150.0 mg/kg/injection, schedule: Q01DX001 (ip), vehicle: other 102 % of control

CC12CCCCC1(OC(=O)c1ccc([N+](=O)[O-])cc1)CCCC2 (configuration not stated)
inactive: dose: 75.0 mg/kg/injection, schedule: Q04DX002 (ip), vehicle: saline with Tween-80 100 % of control | dose: 150.0 mg/kg/injection, schedule: Q04DX002 (ip), vehicle: saline with Tween-80 104 % of control | dose: 300.0 mg/kg/injection, schedule: Q04DX002 (ip), vehicle: saline with Tween-80 88 % of control

O=S1(=O)C2CCCC1C(Cl)CC2 (configuration not stated)
inactive: dose: 15.0 mg/kg/injection, schedule: Q01DX001 (ip), vehicle: carboxymethylcellulose (CMC) 100 % of control

CC(C)N=Cc1ccccc1O.CC(C)N=Cc1ccccc1O.[Ni]
inactive: dose: 6.25 mg/kg/injection, schedule: Q04DX003 (ip), vehicle: saline sonified 92 % of control | dose: 12.5 mg/kg/injection, schedule: Q04DX003 (ip), vehicle: saline sonified 101 % of control | dose: 25.0 mg/kg/injection, schedule: Q04DX003 (ip), vehicle: saline sonified 108 % of control | [1] 86 % of control

Cc1ccccc1OCC(=O)Nc1cccc(NC(=O)COc2ccccc2C)c1
inactive: dose: 50.0 mg/kg/injection, schedule: Q04DX002 (sc), vehicle: olive oil, sesame oil, peanut oil 110 % of control | dose: 100.0 mg/kg/injection, schedule: Q04DX002 (sc), vehicle: olive oil, sesame oil, peanut oil 100 % of control | dose: 200.0 mg/kg/injection, schedule: Q04DX002 (sc), vehicle: olive oil, sesame oil, peanut oil 95 % of control

O=C1NC(c2cccc(Cl)c2)N2C(=O)NC(c3cccc(Cl)c3)N12 (configuration not stated)
inactive: dose: 100.0 mg/kg/injection, schedule: Q01DX009 (ip), vehicle: gum acacia 93 % of control | dose: 100.0 mg/kg/injection, schedule: Q04DX003 (ip), vehicle: gum acacia 92 % of control | dose: 200.0 mg/kg/injection, schedule: Q04DX003 (ip), vehicle: gum acacia 103 % of control | dose: 400.0 mg/kg/injection, schedule: Q01DX009 (ip), vehicle: gum acacia 90 % of control | dose: 400.0 mg/kg/injection, schedule: Q04DX003 (ip), vehicle: gum acacia 92 % of control

CCCCCCCCCCCCNC(=O)c1ccccc1O
inactive: dose: 50.0 mg/kg/injection, schedule: Q01DX009 (ip), vehicle: other 96 % of control | dose: 100.0 mg/kg/injection, schedule: Q01DX009 (ip), vehicle: other 91 % of control | dose: 400.0 mg/kg/injection, schedule: Q01DX009 (ip), vehicle: other 101 % of control

C=CC1CNCCC1CC(=O)OCC (configuration not stated)
inactive: dose: 50.0 mg/kg/injection, schedule: Q04DX003 (ip), vehicle: saline 97 % of control | [4] 95 % of control | [1] 95 % of control | [5] 91 % of control | [2] 111 % of control

C=C1CCC2(C(C)C)CC12 (configuration not stated)
inactive: dose: 100.0 mg/kg/injection, schedule: Q01DX009 (ip), vehicle: saline 103 % of control | [1] 96 % of control | dose: 200.0 mg/kg/injection, schedule: Q01DX009 (ip), vehicle: saline 93 % of control | [2] 110 % of control | dose: 400.0 mg/kg/injection, schedule: Q01DX009 (ip), vehicle: saline 94 % of control | [3] 100 % of control
